In US9834542B2, “LXR modulators” (BRISTOL-MYERS SQUIBB COMPANY, priority 2013, dated 2017):

Target: T1, LXRβ (Homo sapiens, UniProt P55055)
T1 construct: Co-transfection expression plasmids, comprising full-length LXRα (pCMX-h LXRα[…] or LXRβ (pCMX-hLXRβ)); expressed in transfected cells; host or cells: CV-1 African Green Monkey Kidney Cells
T1 sequence (P55055 1-460): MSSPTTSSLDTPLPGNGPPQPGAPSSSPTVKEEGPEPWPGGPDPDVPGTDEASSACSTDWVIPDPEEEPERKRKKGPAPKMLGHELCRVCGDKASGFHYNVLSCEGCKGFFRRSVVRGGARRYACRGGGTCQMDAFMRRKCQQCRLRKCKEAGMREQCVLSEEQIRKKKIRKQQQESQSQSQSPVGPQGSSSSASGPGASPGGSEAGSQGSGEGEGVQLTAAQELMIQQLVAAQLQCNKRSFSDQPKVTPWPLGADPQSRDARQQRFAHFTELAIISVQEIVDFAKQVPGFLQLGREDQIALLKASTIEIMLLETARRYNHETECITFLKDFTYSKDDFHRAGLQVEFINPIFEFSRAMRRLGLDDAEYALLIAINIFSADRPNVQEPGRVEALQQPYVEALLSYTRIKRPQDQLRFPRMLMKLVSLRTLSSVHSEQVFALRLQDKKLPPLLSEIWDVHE
T1 sequence (P19793 1-462 partner): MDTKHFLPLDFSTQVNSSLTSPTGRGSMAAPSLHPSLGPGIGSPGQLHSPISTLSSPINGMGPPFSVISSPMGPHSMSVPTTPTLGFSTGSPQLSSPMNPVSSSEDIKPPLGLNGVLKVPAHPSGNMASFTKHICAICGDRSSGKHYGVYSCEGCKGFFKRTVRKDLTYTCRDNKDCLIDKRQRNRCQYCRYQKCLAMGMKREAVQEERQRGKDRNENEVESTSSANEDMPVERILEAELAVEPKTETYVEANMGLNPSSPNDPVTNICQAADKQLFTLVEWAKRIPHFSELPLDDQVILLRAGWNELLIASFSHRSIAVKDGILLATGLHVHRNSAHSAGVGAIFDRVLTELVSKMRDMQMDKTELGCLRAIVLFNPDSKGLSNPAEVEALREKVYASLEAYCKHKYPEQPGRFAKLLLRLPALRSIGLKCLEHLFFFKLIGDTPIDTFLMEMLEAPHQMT
Assay: Co-transfection assay (LXRE luciferase reporter), LXRβ
Assay type: cell-based
Parameters: % Efficacy: concentration or dose not given beside the values
Conditions: for EC50: CV-1 cells transfected with pCMX-hLXRβ and LXREx1-Tk-Luciferase, 20 hours incubation; for Emax: read-out: % Efficacy
Description: To measure the ability of compounds to activate or inhibit the transcriptional activity of LXR in a cell based assay, the co-transfection assay was used. It has been shown that LXR functions as a heterodimer with RXR. For the co-transfection assay, expression plasmids for LXRα and LXRβ are introduced separately via transient transfection into mammalian cells along with a luciferase reporter plasmid that contains one copy of a DNA sequence that is bound by LXR-RXR heterodimers (LXRE; Willy, P. et. al. 1995). LXRs heterodimerize with the endogenous RXR. Treatment of transfected cells with an LXR agonist increases the transcriptional activity of LXR, which is measured by an increase in luciferase activity.
CV-1 African Green Monkey Kidney Cells
Co-transfection expression plasmids, comprising full-length LXRα (pCMX-h LXRα[…] or LXRβ (pCMX-hLXRβ), reporter plasmid (LXREx1-Tk-Luciferase), and control (pCMX-Galactosidase expression vector) (Willey et al. Genes & Development 9 1033-1045 (1995)).
CV-1 cells were prepared 24 hours prior to the experiment by plating them into T-175 flasks or 500 cm^2 dishes in order to achieve 70-80% confluency on the day of the transfection. The number of cells to be transfected was determined by the number of plates to be screened. Each well of a 384 well plate requires 1.5×10^4 cells. DNA Transfection Reagent was prepared by mixing the required plasmid DNAs with a cationic lipid transfection reagent Transit 2020 (Mirus Bio) for CV1 by following the instructions provided with the reagents. Optimal DNA amounts were determined empirically per cell line and size of vessel to be transfected. For each T175 cm^2 flask a total of 59 ug for CV1 of DNA, 133 uL Transit2020 and 4.5 mL DMEM for CV1 was mixed and added. Cells were then incubated at least 5 hours at 37° C. to prepare screening cells.
Luciferase assay reagent (*Steady-Glo Luciferase Assay System by Promega, CAT#E2550) was prepared by combining before use:
Assay plates were prepared by dispensing 5 μL of compound per well of a 384 well plate to achieve final compound concentration of 10 μM and no more than 0.5% DMSO. Media was removed from the screening cells, the cells trypsinized, harvested cells by centrifugation, counted, and plated at a density of approximately 1.5×10^4 cells in the 384 well assay plate prepared above in a volume of about 95 uL. Assay plates containing both compounds and screening cells (100 μL in total volume) were incubated for 20 hours at 37° C.
After incubation with compounds, media was removed from the cells and luciferase assay reagent (50 μL/well) added. After ˜2 minutes at ambient temperature, the assay plates were read on a luminometer (PE Biosystems Northstar reader with on-board injectors, or Envision(Perkin Elmer) or equivalent).
The LXR/LXRE co-transfection assay can be used to establish the EC50/IC50 values for potency and percent activity or inhibition for efficacy. Efficacy defines the activity of a compound relative to a high control 1-(2,4-difluorobenzyl)-2-oxo-6-(4-phenoxyphenyl)-4-(trifluoromethyl)-1,2-dihydropyridine-3-carbonitrileor a low control (DMSO/vehicle). The dose response curves are generated from a 11 point curve with concentrations differing by ½ LOG units. Each point represents the average of 2 wells of data from duplicate 384 well plate.
The data from this assay is fitted to the following equation, from which the EC50 value may be solved: Y=Bottom+(Top−Bottom)/(1+10^((logEC50-X)*HillSlope)).
The EC50/IC50 is therefore defined as the concentration at which an agonist or antagonist elicits a response that is halfway between the Top (maximum) and Bottom (baseline) values. The EC50/IC50 values represented are the averages of at least 2 and normally 3 independent experiments. […]

[1] = LXRβ co-transfection, relative to high control 1-(2,4-difluorobenzyl)-2-oxo-6-(4-phenoxyphenyl)-4-(trifluoromethyl)-1,2-dihydropyridine-3-carbonitrile

SMILES | EC50 [nM] | % Efficacy [1] [%] | Emax [1] [%]
Cc1nc(-c2cc(-c3cccc(S(C)(=O)=O)c3)ccc2-n2cc(C(C)O)nc2C)c(-c2ccc3c(c2)OC(F)(F)O3)o1 (single isomer, unassigned) [Example 372, 1-(1-(3-(5-(2,2-difluorobenzo[d][1,3]dioxol-5-yl)-2-methyloxazol-4-yl)-3′-(methylsulfonyl)-[1,1′-biphenyl]-4-yl)-2-methyl-1H-imidazol-4-yl) ethanol] | 838 | 33 | –
Cc1nc(C(F)(F)F)cn1-c1ccc(-c2cccc(S(C)(=O)=O)c2)cc1-n1nncc1Cc1cccc(Cl)c1 [Example 121, 5-[(3-chlorophenyl)methyl]-1-{3′-(methylsulfonyl)-4-[2-methyl-4-(trifluoromethyl)-1H-imidazol-1-yl]biphenyl-3-yl}-1H-1,2,3-triazole] | 651 | – | 100
Cc1nc(C(F)(F)F)cn1-c1ccc(-c2cccc(S(C)(=O)=O)c2)cc1-n1nncc1-c1ccc(F)cc1 [Example 43, 5-(4-fluorophenyl)-1-{3′-(methylsulfonyl)-4-[2-methyl-4-(trifluoromethyl)-1H-imidazol-1-yl]biphenyl-3-yl}-1H-1,2,3-triazole] | 1140 | – | 85
Cc1nc(C(F)F)cn1-c1ccc(-c2cccc(S(C)(=O)=O)c2)cc1-n1nncc1-c1ccc(Cl)cc1 [Example 162, 5-(4-chlorophenyl)-1-{4-[4-(difluoromethyl)-2-methyl-1H-imidazol-1-yl]-3′-(methylsulfonyl)biphenyl-3-yl}-1H-1,2,3-triazole] | 977 | – | 65
Cc1nc(C(F)(F)F)cn1-c1ccc(-c2ccc(CO)c(S(C)(=O)=O)c2)cc1-c1oc(CCO)nc1-c1ccc(OC(F)(F)F)cc1 [Example 613, 2-(5-(4′-(hydroxymethyl)-4-(2-methyl-4-(trifluoromethyl)-1H-imidazol-1-yl)-3′-(methylsulfonyl)-[1,1′-biphenyl]-3-yl)-4-(4-(trifluoromethoxy)phenyl)oxazol-2-yl)ethanol] | 1160 | – | 62
Cc1nc(-c2cc(-c3cccc(S(C)(=O)=O)c3)ccc2-n2cc(C(F)(F)F)nc2C)c(-c2cccn(C(C)C)c2=O)o1 [Example 379, 1-isopropyl-3-(2-methyl-4-(4-(2-methyl-4-(trifluoromethyl)-1H-imidazol-1-yl)-3′-(methylsulfonyl)biphenyl-3-yl)oxazol-5-yl)pyridin-2(1H)-one] | 825 | – | 21
Cc1nc(-c2cc(-c3cccc(S(C)(=O)=O)c3)ccc2-n2cc(C(F)(F)F)nc2C)c(-c2ccc(Cl)nc2)o1 [Example 550, 5-(6-chloropyridin-3-yl)-2-methyl-4-(4-(2-methyl-4-(trifluoromethyl)-1H-imidazol-1-yl)-3′-(methylsulfonyl)-[1,1′-biphenyl]-3-yl)oxazole] | 625 | – | 85

Stronger by EC50, values ahead:

EC50 [nM] | % Efficacy [1] [%] | Emax [1] [%] | SMILES
570 | – | 93 | Cc1nc(C(F)F)cn1-c1ccc(-c2cccc(S(C)(=O)=O)c2)cc1-n1nncc1-c1ccc(OC(F)(F)F)c(F)c1 [Example 169, 1-{4-[4-(difluoromethyl)-2-methyl-1H-imidazol-1-yl]-3′-(methylsulfonyl)biphenyl-3-yl}-5-{3-fluoro-4-[(trifluoromethyl)oxy]phenyl}-1H-1,2,3-triazole]
341 | – | 113 | Cc1nc(C(F)(F)F)cn1-c1ccc(-c2cccc(S(C)(=O)=O)c2)cc1-n1nncc1-c1ccc(Cl)c(F)c1 [Example 69, 5-(4-chloro-3-fluorophenyl)-1-{3′-(methylsulfonyl)-4-[2-methyl-4-(trifluoromethyl)-1H-imidazol-1-yl]biphenyl-3-yl}-1H-1,2,3-triazole]
258 | – | 91 | Cc1nc(C(F)(F)F)cn1-c1ccc(-c2cccc(S(C)(=O)=O)c2)cc1-n1nncc1-c1ccc(C(F)F)cc1 [Example 5, 5-[4-(difluoromethyl)phenyl]-1-{3′-(methylsulfonyl)-4-[2-methyl-4-(trifluoromethyl)-1H-imidazol-1-yl]biphenyl-3-yl}-1H-1,2,3-triazole]
218 | – | 95 | Cc1nc(C(F)(F)F)c(Cl)n1-c1ccc(-c2cccc(S(C)(=O)=O)c2)cc1-n1nncc1-c1ccc(Cl)cc1Cl [Example 59, 1-{4-[5-chloro-2-methyl-4-(trifluoromethyl)-1H-imidazol-1-yl]-3′-(methylsulfonyl)biphenyl-3-yl}-5-(2,4-dichlorophenyl)-1H-1,2,3-triazole]
197 | – | 55 | Cc1nc(C(F)(F)F)cn1-c1ccc(-c2cc(F)c(CO)c(S(C)(=O)=O)c2)cc1-c1nc(CC(C)O)oc1-c1ccc(OC(F)(F)F)cc1 (stereo not shown) [Example 534, 1-(4-(3′-fluoro-4′-(hydroxymethyl)-4-(2-methyl-4-(trifluoromethyl)-1H-imidazol-1-yl)-5′-(methylsulfonyl)-[1,1′-biphenyl]-3-yl)-5-(4-(trifluoromethoxy)phenyl)oxazol-2-yl)propan-2-ol]
127 | – | 71 | Cc1nc(C(F)(F)F)cn1-c1c(F)cc(-c2ccc(CO)c(S(C)(=O)=O)c2)cc1-n1nncc1-c1ccc(OC(F)(F)F)cc1 [Example 203, [3′-fluoro-3-(methylsulfonyl)-4′-[2-methyl-4-(trifluoromethyl)-1H-imidazol-1-yl]-5′-(5-{4-[(trifluoromethyl)oxy]phenyl}-1H-1,2,3-triazol-1-yl)biphenyl-4-yl]methanol]
22 | – | 86 | CCCc1nc(-c2cc(-c3cccc(S(C)(=O)=O)c3)ccc2-n2cc(C(F)(F)F)nc2C)c(-c2ccc(OC(F)(F)F)cc2)o1 [Example 520, 4-(4-(2-methyl-4-(trifluoromethyl)-1H-imidazol-1-yl)-3′-(methylsulfonyl)-[1,1′-biphenyl]-3-yl)-2-propyl-5-(4-(trifluoromethoxy)phenyl)oxazole]
